Assay results from the NIST ThermoML archive (doi:10.1016/j.jct.2014.12.022).
Numbers after ± are expanded uncertainties.

What was measured:
[1] = 101.33 kPa, Liquid; for speed of sound: Sing-around technique in a fixed-path interferometer; for mass density: Vibrating tube method
[2] = molar heat capacity at constant pressure; conditions: 101.33 kPa, Liquid, Small sample (50 mg) DSC

speed of sound ([1]; 293.15 K) [m/s]	mass density ([1]; 293.15 K) [kg/m3]	speed of sound ([1]; 298.15 K) [m/s]	mass density ([1]; 298.15 K) [kg/m3]	speed of sound ([1]; 303.15 K) [m/s]	mass density ([1]; 303.15 K) [kg/m3]	molar heat capacity at constant pressure ([2]; 293.15 K) [J/K/mol]	molar heat capacity at constant pressure ([2]; 298.15 K) [J/K/mol]	molar heat capacity at constant pressure ([2]; 303.15 K) [J/K/mol]	Compound
1565.6 ± 1.6	1033.3 ± 1	1546.1 ± 1.6	1028.3 ± 1	1527.3 ± 1.6	1023.5 ± 1	165.44 ± 3.3	166.22 ± 3.3	166.92 ± 3.3	CN1CCCC1=O [N-methylpyrrolidone]
1322.6 ± 1.5	878.89 ± 1	1299.4 ± 1.5	873.54 ± 1	1276.2 ± 1.5	868.2 ± 1	133.58 ± 2.7	135.28 ± 2.7	136.58 ± 2.7	c1ccccc1 [benzene]
